In patent US20230085307A1, “PYRIDAZINONE COMPOUND AND HERBICIDE” (NISSAN CHEMICAL CORPORATION, priority 2019, published 2023):

What was measured:
[1] = system: late watergrass; assay: Test Example 1: herbicidal activity, application before weed generation under submerged conditions (Table 16, symbol A); type: in vivo, late watergrass (Echinochloa oryzicola); conditions: amount of applied herbicide 320 g/ha
Procedure, shortened: (§1)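 Alluvial soil was flooded to 4 cm depth, weed seeds were sown mixed and 2.5-leaf rice seedlings were transplanted. On sowing day, the compound's emulsion, diluted in water to a set dose, was applied to the water surface. Plants grew at 25–30 °C and were scored 0–5 after three weeks.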

[2] = system: Japanese bulrush; assay: Test Example 1: herbicidal activity, application before weed generation under submerged conditions (Table 16, symbol B); type: in vivo, Japanese bulrush (Schoenoplectus juncoides); conditions: amount of applied herbicide 320 g/ha
Procedure, shortened: as §1

[3] = system: oval-leafed pondweed; assay: Test Example 1: herbicidal activity, application before weed generation under submerged conditions (Table 16, symbol C); type: in vivo, oval-leafed pondweed (Monochoria vaginalis); conditions: amount of applied herbicide 320 g/ha
Procedure, shortened: as §1

[4] = system: barnyard grass; assay: Test Example 3: herbicidal effect by foliage application, Wagner pot (Table 18, symbol H); type: in vivo, barnyard grass (Echinochloa crus-galli); conditions: 320 g/ha
Procedure, shortened: (§2)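 Plants were sown in alluvial soil held under 0.1–0.5 cm standing water and grown 14 days in a greenhouse at 25–30 °C. An emulsifiable formulation, water-diluted to the set dose, was then sprayed onto the foliage, and effects were scored three weeks later using previously defined criteria.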

[5] = system: Chinese sprangletop; assay: Test Example 3: herbicidal effect by foliage application, Wagner pot (Table 18, symbol D); type: in vivo, chinese sprangletop (Leptochloa chinensis); conditions: 320 g/ha
Procedure, shortened: as §2

[6] = system: rice flat sedge; assay: Test Example 3: herbicidal effect by foliage application, Wagner pot (Table 18, symbol E); type: in vivo, rice flat sedge (Cyperus iria); conditions: 320 g/ha
Procedure, shortened: as §2

[7] = system: southern crabgrass; assay: Test Example 4: herbicidal effect by soil treatment (Table 19, symbol F); type: in vivo, southern crabgrass (Digitaria ciliaris); conditions: amount of applied herbicide 320 g/ha
Procedure, shortened: (§3)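 Seeds were sown in sterilized diluvial soil and covered with about 1.5 cm of soil. An emulsion formulation diluted with water to a predetermined herbicide amount was sprayed evenly onto the soil surface. Plants grew in a greenhouse at 25° C. to 30° C., and the effect was scored three weeks after application using criteria from an earlier test.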

[8] = system: green foxtail; assay: Test Example 4: herbicidal effect by soil treatment (Table 19, symbol G); type: in vivo, green foxtail (Setaria viridis); conditions: amount of applied herbicide 320 g/ha
Procedure, shortened: as §3

[9] = system: barnyard grass; assay: Test Example 4: herbicidal effect by soil treatment (Table 19, symbol H); type: in vivo, barnyard grass (Echinochloa crus-galli); conditions: amount of applied herbicide 320 g/ha
Procedure, shortened: as §3

[10] = system: wild oat; assay: Test Example 4: herbicidal effect by soil treatment (Table 19, symbol I); type: in vivo, wild oat (Avena fatua); conditions: amount of applied herbicide 320 g/ha
Procedure, shortened: as §3

[11] = system: blackgrass; assay: Test Example 4: herbicidal effect by soil treatment (Table 19, symbol J); type: in vivo, blackgrass (Alopecurus myosuroides); conditions: amount of applied herbicide 320 g/ha
Procedure, shortened: as §3

[12] = system: Italian ryegrass; assay: Test Example 4: herbicidal effect by soil treatment (Table 19, symbol K); type: in vivo, Italian ryegrass (Lolium multiflorum); conditions: amount of applied herbicide 320 g/ha
Procedure, shortened: as §3

[13] = system: windgrass; assay: Test Example 4: herbicidal effect by soil treatment (Table 19, symbol L); type: in vivo, windgrass (Apera spica-venti); conditions: amount of applied herbicide 320 g/ha
Procedure, shortened: as §3

[14] = system: velvetleaf; assay: Test Example 4: herbicidal effect by soil treatment (Table 19, symbol M); type: in vivo, velvetleaf (Abutilon theophrasti); conditions: amount of applied herbicide 320 g/ha
Procedure, shortened: as §3

[15] = system: redroot pigweed; assay: Test Example 4: herbicidal effect by soil treatment (Table 19, symbol N); type: in vivo, redroot pigweed (Amaranthus retroflexus); conditions: amount of applied herbicide 320 g/ha
Procedure, shortened: as §3

[16] = system: lambsquarters; assay: Test Example 4: herbicidal effect by soil treatment (Table 19, symbol O); type: in vivo, lambsquarters (Chenopodium album); conditions: amount of applied herbicide 320 g/ha
Procedure, shortened: as §3

[17] = system: chickweed; assay: Test Example 4: herbicidal effect by soil treatment (Table 19, symbol P); type: in vivo, common chickweed (Stellaria media); conditions: amount of applied herbicide 320 g/ha
Procedure, shortened: as §3

[18] = system: persian speedwell; assay: Test Example 4: herbicidal effect by soil treatment (Table 19, symbol R); type: in vivo, Persian speedwell (Veronica persica); conditions: amount of applied herbicide 320 g/ha
Procedure, shortened: as §3

[19] = system: southern crabgrass; assay: Test Example 5: herbicidal effect by foliage application, plastic box (Table 20, symbol F); type: in vivo, southern crabgrass (Digitaria ciliaris); conditions: foliage application, 320 g/ha, three weeks after application
Procedure, shortened: (§4)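 Plants sown in sterilized diluvial soil and grown 14 days in a greenhouse at 25° C to 30° C, then sprayed on the foliage with the compound's emulsion diluted in water to a predetermined herbicide amount. Injury to weeds and crops scored three weeks after application on a visual rating scale.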

[20] = system: green foxtail; assay: Test Example 5: herbicidal effect by foliage application, plastic box (Table 20, symbol G); type: in vivo, green foxtail (Setaria viridis); conditions: foliage application, 320 g/ha, three weeks after application
Procedure, shortened: as §4

[21] = system: barnyard grass; assay: Test Example 5: herbicidal effect by foliage application, plastic box (Table 20, symbol H); type: in vivo, barnyard grass (Echinochloa crus-galli); conditions: foliage application, 320 g/ha, three weeks after application
Procedure, shortened: as §4

[22] = system: wild oat; assay: Test Example 5: herbicidal effect by foliage application, plastic box (Table 20, symbol I); type: in vivo, wild oat (Avena fatua); conditions: foliage application, 320 g/ha, three weeks after application
Procedure, shortened: as §4

[23] = system: blackgrass; assay: Test Example 5: herbicidal effect by foliage application, plastic box (Table 20, symbol J); type: in vivo, blackgrass (Alopecurus myosuroides); conditions: foliage application, 320 g/ha, three weeks after application
Procedure, shortened: as §4

[24] = system: Italian ryegrass; assay: Test Example 5: herbicidal effect by foliage application, plastic box (Table 20, symbol K); type: in vivo, Italian ryegrass (Lolium multiflorum); conditions: foliage application, 320 g/ha, three weeks after application
Procedure, shortened: as §4

[25] = system: windgrass; assay: Test Example 5: herbicidal effect by foliage application, plastic box (Table 20, symbol L); type: in vivo, windgrass (Apera spica-venti); conditions: foliage application, 320 g/ha, three weeks after application
Procedure, shortened: as §4

[26] = system: velvetleaf; assay: Test Example 5: herbicidal effect by foliage application, plastic box (Table 20, symbol M); type: in vivo, velvetleaf (Abutilon theophrasti); conditions: foliage application, 320 g/ha, three weeks after application
Procedure, shortened: as §4

[27] = system: lambsquarters; assay: Test Example 5: herbicidal effect by foliage application, plastic box (Table 20, symbol O); type: in vivo, lambsquarters (Chenopodium album); conditions: foliage application, 320 g/ha, three weeks after application
Procedure, shortened: as §4

[28] = system: persian speedwell; assay: Test Example 5: herbicidal effect by foliage application, plastic box (Table 20, symbol R); type: in vivo, Persian speedwell (Veronica persica); conditions: foliage application, 320 g/ha, three weeks after application
Procedure, shortened: as §4

Structure (SMILES): CCOc1cc(F)ccc1-c1sc2cc(Cl)c(Cl)cc2c1-c1c(O)c(C)nn(C)c1=O [5-053]
- Herbicidal effect, A: late watergrass [1]: 0 (Herbicidal rate of 5% or less (almost no effect))
- Herbicidal effect, B: Japanese bulrush [2]: 3 (Herbicidal rate of 40% or more and less than 70%)
- Herbicidal effect, C: oval-leafed pondweed [3]: 0 (Herbicidal rate of 5% or less (almost no effect))
- herbicidal effect on barnyard grass (H) [4]: 3 (Herbicidal rate of 40% or more and less than 70%)
- herbicidal effect on Chinese sprangletop (D) [5]: 3 (Herbicidal rate of 40% or more and less than 70%)
- herbicidal effect on rice flat sedge (E) [6]: 5 (Herbicidal rate of 90% or more (almost completely withered))
- F: southern crabgrass, herbicidal effect grade [7]: 0 (Herbicidal rate of 5% or less (almost no effect))
- G: green foxtail, herbicidal effect grade [8]: 0 (Herbicidal rate of 5% or less (almost no effect))
- H: barnyard grass, herbicidal effect grade [9]: 0 (Herbicidal rate of 5% or less (almost no effect))
- I: wild oat, herbicidal effect grade [10]: 0 (Herbicidal rate of 5% or less (almost no effect))
- J: blackgrass, herbicidal effect grade [11]: 0 (Herbicidal rate of 5% or less (almost no effect))
- K: Italian ryegrass, herbicidal effect grade [12]: 0 (Herbicidal rate of 5% or less (almost no effect))
- L: windgrass, herbicidal effect grade [13]: 0 (Herbicidal rate of 5% or less (almost no effect))
- M: velvetleaf, herbicidal effect grade [14]: 0 (Herbicidal rate of 5% or less (almost no effect))
- N: redroot pigweed, herbicidal effect grade [15]: 3 (Herbicidal rate of 40% or more and less than 70%)
- O: lambsquarters, herbicidal effect grade [16]: 0 (Herbicidal rate of 5% or less (almost no effect))
- P: chickweed, herbicidal effect grade [17]: 0 (Herbicidal rate of 5% or less (almost no effect))
- R: persian speedwell, herbicidal effect grade [18]: 1 (Herbicidal rate of 5% or more and less than 20%)
- herbicidal effect on southern crabgrass (F) [19]: 3 (Herbicidal rate of 40% or more and less than 70%)
- herbicidal effect on green foxtail (G) [20]: 4 (Herbicidal rate of 70% or more and less than 90%)
- herbicidal effect on barnyard grass (H) [21]: 1 (Herbicidal rate of 5% or more and less than 20%)
- herbicidal effect on wild oat (I) [22]: 0 (Herbicidal rate of 5% or less (almost no effect))
- herbicidal effect on blackgrass (J) [23]: 0 (Herbicidal rate of 5% or less (almost no effect))
- herbicidal effect on Italian ryegrass (K) [24]: 0 (Herbicidal rate of 5% or less (almost no effect))
- herbicidal effect on windgrass (L) [25]: 3 (Herbicidal rate of 40% or more and less than 70%)
- herbicidal effect on velvetleaf (M) [26]: 5 (Herbicidal rate of 90% or more (almost completely withered))
- herbicidal effect on lambsquarters (O) [27]: 3 (Herbicidal rate of 40% or more and less than 70%)
- herbicidal effect on persian speedwell (R) [28]: 5 (Herbicidal rate of 90% or more (almost completely withered))

Structure (SMILES): CCCC(=O)Oc1c(C)nn(C)c(=O)c1-c1c(-c2ccccc2OC)sc2cc(OC)c(Cl)cc12 [5-069]
- Herbicidal effect, A: late watergrass [1]: 3 (Herbicidal rate of 40% or more and less than 70%)
- Herbicidal effect, B: Japanese bulrush [2]: 1 (Herbicidal rate of 5% or more and less than 20%)
- Herbicidal effect, C: oval-leafed pondweed [3]: 0 (Herbicidal rate of 5% or less (almost no effect))
- herbicidal effect on barnyard grass (H) [4]: 4 (Herbicidal rate of 70% or more and less than 90%)
- herbicidal effect on Chinese sprangletop (D) [5]: 0 (Herbicidal rate of 5% or less (almost no effect))
- herbicidal effect on rice flat sedge (E) [6]: 0 (Herbicidal rate of 5% or less (almost no effect))
- F: southern crabgrass, herbicidal effect grade [7]: 0 (Herbicidal rate of 5% or less (almost no effect))
- G: green foxtail, herbicidal effect grade [8]: 0 (Herbicidal rate of 5% or less (almost no effect))
- H: barnyard grass, herbicidal effect grade [9]: 0 (Herbicidal rate of 5% or less (almost no effect))
- I: wild oat, herbicidal effect grade [10]: 0 (Herbicidal rate of 5% or less (almost no effect))
- J: blackgrass, herbicidal effect grade [11]: 0 (Herbicidal rate of 5% or less (almost no effect))
- K: Italian ryegrass, herbicidal effect grade [12]: 0 (Herbicidal rate of 5% or less (almost no effect))
- L: windgrass, herbicidal effect grade [13]: 0 (Herbicidal rate of 5% or less (almost no effect))
- M: velvetleaf, herbicidal effect grade [14]: 0 (Herbicidal rate of 5% or less (almost no effect))
- N: redroot pigweed, herbicidal effect grade [15]: 2 (Herbicidal rate of 20% or more and less than 40%)
- O: lambsquarters, herbicidal effect grade [16]: 0 (Herbicidal rate of 5% or less (almost no effect))
- P: chickweed, herbicidal effect grade [17]: 0 (Herbicidal rate of 5% or less (almost no effect))
- R: persian speedwell, herbicidal effect grade [18]: 0 (Herbicidal rate of 5% or less (almost no effect))
- herbicidal effect on southern crabgrass (F) [19]: 4 (Herbicidal rate of 70% or more and less than 90%)
- herbicidal effect on green foxtail (G) [20]: 3 (Herbicidal rate of 40% or more and less than 70%)
- herbicidal effect on barnyard grass (H) [21]: 3 (Herbicidal rate of 40% or more and less than 70%)
- herbicidal effect on wild oat (I) [22]: 0 (Herbicidal rate of 5% or less (almost no effect))
- herbicidal effect on blackgrass (J) [23]: 0 (Herbicidal rate of 5% or less (almost no effect))
- herbicidal effect on Italian ryegrass (K) [24]: 0 (Herbicidal rate of 5% or less (almost no effect))
- herbicidal effect on windgrass (L) [25]: 2 (Herbicidal rate of 20% or more and less than 40%)
- herbicidal effect on velvetleaf (M) [26]: 3 (Herbicidal rate of 40% or more and less than 70%)
- herbicidal effect on lambsquarters (O) [27]: 3 (Herbicidal rate of 40% or more and less than 70%)
- herbicidal effect on persian speedwell (R) [28]: 0 (Herbicidal rate of 5% or less (almost no effect))
